Measured values published in patent publication US11980616B2, “Treating liver disease by selectively eliminating senescent cells” (Buck Institute for Research on Aging, priority 2014, dated 2024).

Key:
LDLR-/- mice fed a HFD = assay: Atherosclerosis model, LDLR-/- mice fed a high fat diet; format: in vivo, mouse
Description: Schematics of two atherosclerosis mouse models are presented in FIGS. 43A-B. The study illustrated in FIG. 43A assessed the extent to which clearance of senescent cells from plaques in LDLR^−/− mice with Nutlin-3A reduces plaque load. Two groups of LDLR^−/− mice (10 weeks) are fed a high fat diet (HFD) (Harlan Teklad TD.88137) having 42% calories from fat, beginning at Week 0 and throughout the study. Two groups of LDLR^−/− mice (10 weeks) are fed normal chow (−HFD). From weeks 0-2, one group of HFD mice and −HFD mice are treated with Nutlin-3A (25 mg/kg, intraperitoneally). One treatment cycle is 14 days treatment, 14 days off. Vehicle is administered to one group of HFD mice and one group of −HFD mice. At week 4 (timepoint 1), one group of mice are sacrificed and to assess presence of senescent cells in the plaques. For the some of the remaining mice, Nutlin-3A and vehicle administration is repeated from weeks 4-6. At week 8 (timepoint 2), the mice are sacrificed and to assess presence of senescent cells in the plaques. The remaining mice are treated with Nutlin-3A or vehicle from weeks 8-10. At week 12 (timepoint 3), the mice are sacrificed and to assess the level of plaque and the number of senescent cells in the plaques.
Plasma lipid levels were measured in LDLR^−/− mice fed a HFD and treated with Nutlin-3A or vehicle at timepoint 1 as compared with mice fed a −HFD (n=3 per group). Plasma was collected mid-afternoon and analyzed for circulating lipids and lipoproteins.
At the end of timepoint 1, LDLR^−/− mice fed a HFD and treated with Nutlin-3A or vehicle were sacrificed (n=3, all groups), and the aortic arches were dissected for RT-PCR analysis of SASP factors and senescent cell markers. Values were normalized to GAPDH and expressed as fold-change versus age-matched, vehicle-treated LDLR^−/− mice on a normal diet.
At the end of timepoint 2, LDLR^−/− mice fed a HFD and treated with Nutlin-3A or vehicle (n=3 for all groups) were sacrificed, and aortic arches were dissected for RT-PCR analysis of SASP factors and senescent cell markers. Values were normalized to GAPDH and expressed as fold-change versus age-matched, vehicle-treated LDLR^−/− mice on a normal diet.
At the end of timepoint 3, LDLR^−/− mice fed a HFD and treated with Nutlin-3A or vehicle (n=3 for all groups) were sacrificed, and aortas were dissected and stained with Sudan IV to detect the presence of lipid. Body composition of the mice was analyzed by MRI, and circulating blood cells were counted by Hemavet. […] As shown in FIGS. 48A-B, the platelet and lymphocyte counts were equivalent between the Nutlin-3A and vehicle treated mice.

[1] = system: non-senescent pre-adipocytes (Non Sen Pread); assay: Cell count toxicity assay, non-senescent pre-adipocytes; format: cell-based; settings: 0, 2.5, 10 μM, 11 days
Description: Non-senescent aortic endothelial (Endo Aort) cells and pre-adipocytes (Pread) were also treated with varying concentrations (0, 2.5 μM, and 10 μM) of Nutlin-3a for a period of 11 days to assess Nutlin-3a toxicity, as described above. Cell counts were taken at the start at Day 0 (NS start) and at the end of Nutlin-3a treatment (NS 0). The difference between counts of cells not treated with Nutlin-3a on day 11 (NS 0) and cell counts from NS start reflects the cell growth over the indicated time period. […] Decrease in apparent survival between NS 0 and NS 2.5 and between NS 0 and NS 10 reflects a decrease in cell growth.

[2] = system: senescent mouse embryonic fibroblasts (MEF); assay: Cell count survival assay, irradiation-induced senescent MEF; format: cell-based; settings: irradiated MEF; 0, 2.5, 10 μM for 9 days
Description: (§1) Foreskin fibroblast cell lines HCA2 and BJ, lung fibroblast cell line IMR90, and mouse embryonic fibroblasts were seeded in six-well plates and induced to senesce with 10 Gy of ionizing radiation (IR) or a 24 hr treatment with doxorubicin (Doxo). Senescent phenotype was allowed to develop for at least 7 days, at which point a cell count was made to determine the baseline number of cells. Nutlin-3a treatment was then initiated for a period of at least 9 days. Media alone or media with drug as appropriate was refreshed at least every three days. At the end of the assay time period, cells are counted. Each condition was seeded in three plate wells and counted independently. Initial cell count serves as a control to determine the induction of senescence, as compared to the last day count without nutlin treatment. Initial non-senescent cell count serves as a proxy to determine Nutlin-3a toxicity.
(§2) Foreskin fibroblast cell lines HCA2 and BJ, lung fibroblast cell line IMR90, and mouse embryonic fibroblasts were exposed to 10 Gy of ionizing radiation (IR) to induce senescence. […] Percent survival was calculated as [cell count on day 9 of Nutlin-3a treatment/initial cell count on first day of Nutlin-3a treatment].

[3] = system: senescent lung fibroblasts (Sen(IR)IMR90); assay: Cell count survival assay, irradiation-induced senescent IMR90; format: cell-based, human; settings: 0, 2.5, 10 μM for 9 days
Description: as §1, §2

[4] = system: IL-6 secretion by senescent IMR90 cells; assay: IL-6 secretion ELISA in irradiated senescent IMR90 cells; format: cell-based, human; settings: 10 μM for nine days, then six days without drug; ELISA normalized to cell number
Description: In another experiment, IMR90 cells were induced to senesce by irradiation (10 Gy). Seven days after irradiation, cells were treated with 10 μM Nutlin-3a or vehicle (DMSO) for nine days (Day 9). The drug or vehicle was refreshed every three days. Drug/vehicle was removed at Day 9 and the cells were cultured for an additional six days. Conditioned media from the treated cells was collected, and IL-6 measurement by ELISA was performed (Perkin Elmer, AL223F). IL-6 levels in culture media were determined by ELISA using a kit according to manufacturer's instructions (AL223F, Perkin Elmer). Cells were fixed with 4% paraformaldehyde and stained by immunofluorescence with a specific anti-IL-6 antibody (R&D, AF-206-NA). The IL-6 level determined by ELISA was normalized to the number of cells in each well. The data are presented in FIG. 22C as a relative level of IL-6 in the treated cells compared to the level in non-senescent cells (NS). The data are presented as an average of three different cell samples.

[5] = system: doxorubicin-treated (Doxo) senescent aortic endothelial cells (Endo Aort); assay: Cell count survival assay, doxorubicin-induced senescent aortic endothelial cells; format: cell-based; settings: Sen(Doxo) aortic endothelial cells; 11 days
Description: as §1
Foreskin fibroblasts (HCA2) and aortic endothelial cells (Endo Aort) were treated with doxorubicin (250 nM) for one day (24 hours) to induce senescence (see FIG. 1). Eight days following doxorubicin treatment, Nutlin-3a treatment was initiated. HCA2 cells were exposed to Nutlin-3a for 9 days, and aortic endothelial cells were exposed to Nutlin-3a for 11 days. […] Percent survival was calculated as [cell count on the last day of Nutlin-3a treatment/initial cell count on first day of Nutlin-3a treatment].

COc1ccc(C2=N[C@@H](c3ccc(Cl)cc3)[C@@H](c3ccc(Cl)cc3)N2C(=O)N2CCNC(=O)C2)c(OC(C)C)c1 [Nutlin-3a]
Expression of SASP factors and senescent cell markers in aortic arch (RT-PCR) (LDLR-/- mice fed a HFD; 25 mg/kg i.p., after 1 treatment cycle, MMP3, MMP13, PAI1, p21, IGFBP2, IL-1A, IL-1B): reduced expression of several SASP factors and senescent cell markers
Expression of SASP factors and senescent cell markers in aortic arch (RT-PCR) (LDLR-/- mice fed a HFD; 25 mg/kg i.p., multiple (two) treatment cycles): reduced expression of most markers
Reduction of plaques in the descending aorta (Sudan IV) (LDLR-/- mice fed a HFD; 25 mg/kg i.p., three treatment cycles, week 12): ~45%
Lymphocyte count vs vehicle (LDLR-/- mice fed a HFD; three treatment cycles): equivalent
Platelet count vs vehicle (LDLR-/- mice fed a HFD; three treatment cycles): equivalent
Proliferation (percent growth) [1]: reduces proliferation
Toxicity (cell number vs starting level) [1]: non-toxic
Percent survival [2]: reduced cell survival
Percent survival [3]: reduced cell survival
IL-6 level, fold lower than DMSO treated cells [4]: 5-9 fold
Percent survival [5]: sensitive
